Experimental data published in patent US20240342121A1, “THE USE OF BETA-HYDROXYBUTYRATES FOR THE TREATMENT OR PREVENTION OF ANEURYSMS AND DISSECTIONS” (priority 2021, published 2024).
Entries after “also recorded” stand apart in the source; their conditions may differ.

What was measured:
senescent SMCs [1] = experiment: Cellular viability (cytotoxicity) assay of senescent and normal SMCs; assay type: cell-based; settings: premature senescence by H2O2, Arsenite or Nutlin 3a, FIG. 2A
Procedure: (§1) FIGS. 2A-2L. (a) Cytotoxicity assay of normal smooth muscle cells (NS) and senescent smooth muscle cells (SMCs). Replicative senescent SMCs (RS) and premature senescent SMCs, stimulated by H2O2 (HP), arsenic (Ars), and Nutlin 3a (Nut) treatment were treated with βHB, s-βHB, and ABT-737. (b) Flow cytometry analysis of apoptosis by βHB or s-βHB in radiation (10 Gy)-induced senescent SMC. (c) Quantitation of apoptotic cell and senescent cell after treating βHB and s-βHB in radiation-induced senescent SMC. (d) Representative aorta image of AII-infused mice with post-treatment of ABT-737, βHB and s-βHB. (e) External diameter of abdominal aorta infused with AII and post-treated with ABT-737 βHB and s-βHB. (f) SA-βGal activity assay of the whole aorta infused with AII, and post-treated with ABT-737, KD, or KE. (g) Quantitation of senescent area on aorta of AII-infused mice, and post-treated with KD, KE and ABT-737. (h) TUNEL assay on the abdominal aorta of AII infused mice, and treated with ABT-737, βHB, or s-βHB. SM-α Actin (SMA) and DAPI are co-stained after TUNEL reaction. […]
The clearance of senescent cells that accumulate during the aneurysm development is required to reduce the volume of aneurysm plaque. Thus, the senotherapeutic potential of βHB to reverse AAA progression was evaluated. […]

[2] = tested on: angiotensin II (AII)-induced AAA; experiment: AII-induced AAA mouse model, post-treatment; assay type: in vivo; settings: injection every other day for two weeks, FIG. 2E
[3] = in vivo
Source text: We established an in vivo tolerance test of βHB and s-βHB (FIGS. 9A and 9B). […] The reduction of the inner diameter of the aortic wall is also dramatic in the treatment of s-βHB in FIG. 9F (Two-way ANOVA, ^###P<0.005, n=10).

[4] = tested on: angiotensin II (AII)-induced AAA; experiment: AII-induced AAA mouse model, post-treatment; assay type: in vivo
Source text: To determine if senescence is a major cause of aneurysm development, the association between senescence and aneurysms using the angiotensin II (AII)-induced AAA model was investigated. Mice were infused AII for four weeks using osmotic mini-pump implantation into Apoe^−/− transgenic mouse.
To investigate the therapeutic potential of ketotherapy for abdominal aortic aneurysm (AAA), Ketogenic-diet (KD) and Ketone-ester (KE) were provided to angiotensin II (AII)-induced mouse model of AAA (FIG. 6). […] After completing AII infusion, the mice were post-treated with KD and KE for two to four weeks.
To investigate the time-dependent reduction of aorta diameter, the inner diameter of the aorta using ultrasound analysis was measured.

senescent SMCs [5] = experiment: Flow cytometry (FACS) apoptosis analysis, PI and Annexin V; assay type: cell-based; settings: FIGS. 2B, 2C
Procedure: as §1, with “reaction. (i) Caspase 3 activity assay on normal SMCs (NC) treated with βHB, or s-βHB, and ABT-737 comparing to normal cells pretreated with Nutlin-3a. (j) Caspase 3 activity assay on senescent SMCs (SNC) treated with βHB, or s-βHB, and ABT-737 compared to senescent cells pretreated with pifithrin-α.” for “reaction.”

CaCl2-induced AAA = CaCl2-induced AAA animal model, post-treatment; assay type: in vivo, mouse
Procedure: FIGS. 5A-5J. (a) Representative image of aorta which developed CaCl2)-induced AAA, and post-treated with KD, KE, βHB, s-βHB, or ABT-737. KD is provided to mice for 4 weeks, KE is administrated with drinking water, βHB, s-βHB or ABT-737 are IP injected for 2 weeks with 48h intervals. (b) Incidence of AAA by CaCl2) treatment and proportion of mice recovered from the AAA after post-treatment of KD, KE, βHB and s-βHB for 2 weeks. (c) Time-dependent observation of inner diameter after CaCl2) treatment and post-treatment of KD or KE (28˜56 days after surgery). (d) Comparison of ultrasound images of CaCl2)-induced AAA to the identical aorta post-treated with βHB for 2 weeks. (e) H&E staining of aorta from the mice developed with CaCl2)-induced AAA, and post-treated with KD, KE, βHB, and s-βHB. (f) SA β-Gal activity assay on aorta which developed CaCl2)-induced AAA, and post-treated with KD, KE, βHB, s-βHB, or ABT-737. (g) Quantitation of senescent area on aorta developed with CaCl2)-induced AAA, and post-treated with KD, KE, βHB, s-βHB. (h) Verhoeff Van Gieson/EVG staining of abdominal aorta developed with CaCl2)-induced AAA, post-treated with KD, KE, βHB and s-βHB. (i) Average number of elastic fibers on abdominal aorta presented at FIG. 5H. (j) Measurement of Pulse Wave Velocity (PWV) on CaCl2)-infused mice with post-treatment of KD, KE, βHB, and s-βHB.
To confirm the possibility that the therapeutic effect of βHB on AAA is not only applied to AII-induced AAA, the CaCl2)-induced AAA animal model was also examined as well (FIG. 5A).
To further validate the therapeutic efficacy of s-βHB on aneurysms, we used a CaCl2-induced AAA animal model as well as an angiotensin II infusion model. […] Two-way ANOVA, s-βHB vs βHB, #P<0.01, n=10. Since the elimination of senescent SMCs is critical for the recovery of AAA, we investigated that s-βHB is also effective to remove senescent cells in CaCl2)-induced aneurysms. […] Student's T-test for s-βHB vs βHB, ^#P<0.05, n=8.

C[C@@H](O)CC(=O)O [βHB, (R)-3-Hydroxybutyrate]
number of senescent SMCs versus normal SMCs (senescent SMCs [1]): selectively reduced the number of senescent SMCs and not normal SMCs; also recorded: slightly reduced
external diameter of the abdominal aorta [2]: significantly reduced
half-life [3]: 50 min
metabolic elimination rate [3]: faster than s-βHB
TUNEL assay, apoptosis of senescent plaque in the aneurysm ([4]; FIG. 2H): induced targeted apoptosis of senescent plaque
abdominal aorta stiffness, Pulse Wave Velocity (PWV) ([4]; FIG. 3H, FIG. 18A): ameliorated vascular stiffness; also recorded: reversed aneurysm-associated aortic stiffness
KβHB modified protein in abdominal aorta ([4]; in vivo, immunofluorescent staining, FIG. 15B): increases KβHB modified protein in nuclear
AAA rate after post-treating ([4]; incidence of AAA by angiotensin II infusion 67%, n=10, FIG. 9D): 47%
AAA on whole aorta images ([4]; injected every other day for two weeks, FIG. 2D): successfully rescued
myofibroblast, SM α-Actin and FSP co-staining in aortic wall ([4]; post-treatment, FIGS. 17A-17B): increases
apoptosis of senescent SMCs (senescent SMCs [5]): induced targeted apoptosis of senescent SMCs
abnormal curvature on aortic wall (ultrasound) (CaCl2-induced AAA; FIG. 5D): repaired abnormal curvature on aortic wall
recovery from CaCl2-induced AAA (CaCl2-induced AAA; FIGS. 5A and 5B): Effective recovery
senescent cells, SA β-gal assay (CaCl2-induced AAA; FIGS. 5F and 5G): significantly reduced; also recorded: less effective than KD, KE and s-βHB
elastic laminar / vascular integrity (CaCl2-induced AAA; FIGS. 5H and 5I): improved vascular integrity
recovery rate of AAA (CaCl2-induced AAA; comparison between treatments, FIG. 5B): less effectiveness compared to s-βHB, KD, and KE treatment
AAA progression (CaCl2-induced AAA; post-treatment after four weeks, FIG. 5C): inhibited AAA progression
